Common to all, as to format: cell-based
The subject of test [1] is Carbapenem-resistant Acinetobacter baumannii (CRAB). Put plainly: Test Example 1: antibacterial activity test (MIC). On the procedure: (§1) The test compounds were diluted in a gradient and used for an MIC assay on the test strains. The test compounds at an initial assay concentration of 32 μg/mL were diluted in a 2-fold gradient (11 concentration points in total), and two duplicate wells were set for each concentration. Additional wells without drug dosing were set as growth controls. The minimum inhibitory concentration (MIC) assay was performed with reference to the Clinical and Laboratory Standards Institute (CLSI) guidelines.
(§2) After the frozen strains were subcultured, a single colony was picked and re-suspended in normal saline or sterile water in a tube. The bacterial suspension was vortexed and adjusted to 0.5 McF using a spectrophotometer at the wavelength of 530 nm. The bacterial solution was taken by a pipette, added to a culture medium, diluted and mixed well, and seeded to a bacterial assay plate.
(§3) The 96-well plate was affixed with a disposable sealing film, shaken and mixed well, and visually observed using a plate reader. The minimum concentration of the compounds capable of inhibiting the growth of bacteria was defined as MIC as compared to the growth controls.

Test [2] relates to Carbapenem-resistant Enterobacteriaceae (CRE). Put plainly: Test Example 1: antibacterial activity test (MIC). On the procedure:
as §1, §2, §3

In test [3] the test system is Carbapenem-resistant Pseudomonas aeruginosa (CRPA). The experiment in a line: Test Example 1: antibacterial activity test (MIC). On the procedure:
as §1, §2, §3

For test [4], the system named is Carbapenem-resistant Enterobacteriaceae (CRE, Klebsiella pneumoniae). The experiment in a line: Test Example 2: antibacterial activity test (MIC). The settings on record: ID-CAMHB, read-out: ID-CAMHB, MIC. On the procedure:
(§4) 1. The test compounds were dissolved in sterile normal saline, vortexed for uniformly mixing, and diluted in a 2-fold dilution with the sterile normal saline (11 concentration points in total). The test concentration range was 32-0.031 μg/mL, and two duplicate wells were set for each concentration. Additional wells without drug dosing were set as growth controls. 2. 4 μL of the diluent was added to 196 μL of the bacterial suspension in a 96-well plate (the bacterial count in the bacterial suspension was 2-8×10^5 colony forming units/mL). 3.
(§5) The minimum inhibitory concentration (MIC) assay was performed with reference to the Clinical and Laboratory Standards Institute (CLSI) guidelines.

In test [5] the test system is Carbapenem-resistant Pseudomonas aeruginosa (CRPA, Pseudomonas aeruginosa). Put plainly: Test Example 2: antibacterial activity test (MIC). The following applies: ID-CAMHB, read-out: ID-CAMHB, MIC. On the procedure:
as §4, §5

Test [6] relates to Control Strain Pseudomonas aeruginosa ATCC 27853. The experiment in a line: Test Example 2: antibacterial activity test (MIC). The following applies: ATCC27853, ID-CAMHB, ATCC 27853, read-out: ID-CAMHB, MIC. On the procedure:
as §4, §5

Test [7] relates to Carbapenem-resistant Acinetobacter baumannii (CRAB, Acinetobacter baumannii). The experiment in a line: Test Example 2: antibacterial activity test (MIC). The settings on record: ID-CAMHB, read-out: ID-CAMHB, MIC. On the procedure:
as §4, §5

In test [8] the test system is Control strain Escherichia coli ATCC 25922. The experiment in a line: Test Example 2: antibacterial activity test (MIC). The following applies: ATCC25922, ID-CAMHB, ATCC 25922, read-out: ID-CAMHB, MIC. On the procedure: as §4, §5
The mark [9] stands for this setting: FDA-CDC AR-BANK #0361 (TEM-1; SHV-12; KPC-2).
[10] abbreviates: FDA-CDC AR-BANK #0362 (TEM-1; SHV-11; KPC-2).
The mark [11] stands for this setting: FDA-CDC AR-BANK #0363 (TEM-1; SHV-12; KPC-2).
Setting [12] is: FDA-CDC AR-BANK #0438 (aph(3′)-Ia, dfrA12, KPC-3, OmpK35, oqxA, oqxB, SHV-11).
Where [13] appears, read: FDA-CDC AR-BANK #0453 (KPC-3, OmpK35, oqxA, oqxB, SHV-11, TEM-1B).
Where [14] appears, read: FDA-CDC AR-BANK #0439 (aac(6′)-Il, aadA1b, BCR1, IMP-18, OXA-50).
The mark [15] stands for this setting: FDA-CDC AR-BANK #0444 (aac(6′)-Il, dfrB5, OXA-4, tet(G), VIM-2).
Where [16] appears, read: FDA-CDC AR-BANK #0457 (aadA6, VIM-2).
Where [17] appears, read: FDA-CDC AR-BANK #0036 (strB, OXA-65, OXA-24, strA, sul2).
[18] abbreviates: FDA-CDC AR-BANK #0052 (OXA-58, OXA-100, sul2).
Where [19] appears, read: FDA-CDC AR-BANK #0063 (OXA-23, OXA-65, OXA-24, sul2).
Where [20] appears, read: FDA-CDC AR-BANK #0070 (OXA-58, OXA-100, sul2).
[21] abbreviates: FDA-CDC AR-BANK #0101 (strB, OXA-65, OXA-24, strA, sul2).

Molecules are shown by their SMILES. Like-named read-outs stand apart in the source and are kept apart here.

As a reminder, the MIC is the smallest concentration in the dilution series that meets the test's criterion for growth inhibition. Regarding `CC(C)(O/N=C(\C(=O)N[C@@H]1C(=O)N2C(C(=O)O)=C(C[N+]3(CCN(O)C(=O)c4ccc(O)c(O)c4Cl)CCCC3)CS[C@H]12)c1csc(N)n1)C(=O)O` [Compound 6], the MIC in test [1] (CRAB strain No. 100085) is 3 µg/mL; in test [1] (CRAB strain No. 100333), 6 µg/mL; in test [1] (CRAB strain No. 110440), 4 µg/mL; in test [1] (CRAB strain No. 110477), 3 µg/mL; in test [1] (CRAB strain No. 110517), 1 µg/mL; in test [2] (CRE strain No. 100109) it was 2 µg/mL. Further, the MIC in test [2] (CRE strain No. 100186) was 1.5 µg/mL; in test [2] (CRE strain No. 110502) it was 32 µg/mL; in test [2] (CRE strain No. 110525), 4 µg/mL; in test [2] (CRE strain No. 311277) it was 8 µg/mL; in test [3] (CRPA strain No. 100110), 0.063 µg/mL; in test [3] (CRPA strain No. 110163) it was 0.5 µg/mL. The MIC came to 0.625 µg/mL in test [3] (CRPA strain No. 110224), 4 µg/mL in test [3] (CRPA strain No. 110358) and 2 µg/mL in test [3] (CRPA strain No. 110390).
`CC(C)(O/N=C(\C(=O)N[C@@H]1C(=O)N2C(C(=O)O)=C(C[N+]3(CCNC(=S)c4ccc(O)c(O)c4Cl)CCCC3)CS[C@H]12)c1csc(N)n1)C(=O)O` [Compound 7]: the MIC in test [4] (setting [9]) turned out to be 1 µg/mL; in test [4] (setting [10]), 1 µg/mL; in test [4] (setting [11]), 0.5 µg/mL; in test [4] (setting [12]), 2 µg/mL; in test [4] (setting [13]), 4 µg/mL; in test [5] (setting [14]), 8 µg/mL. Moreover, the MIC was found to be 8 µg/mL in test [5] (FDA-CDC AR-BANK #0441 (KPC-2)); 32 µg/mL in test [5] (setting [15]); 1 µg/mL in test [5] (setting [16]); 0.125 µg/mL in test [6]; 2 µg/mL in test [7] (setting [17]); 0.25 µg/mL in test [7] (setting [18]). Besides, the MIC in test [7] (setting [19]) was above 32 µg/mL; in test [7] (setting [20]), 0.125 µg/mL; in test [7] (setting [21]), 4 µg/mL; in test [8], 0.125 µg/mL.
Turning to `CC(C)(O/N=C(\C(=O)N[C@@H]1C(=O)N2C(C(=O)O)=C(C[N+]3(CCNC(=O)c4ccc5cc(O)c(O)cc5c4)CCCC3)CS[C@H]12)c1csc(N)n1)C(=O)O` [Compound 8], the MIC was found to be 2 µg/mL in test [4] (setting [9]); 1 µg/mL in test [4] (setting [10]); 0.25 µg/mL in test [4] (setting [11]); 2 µg/mL in test [4] (setting [12]); 2 µg/mL in test [4] (setting [13]); 1 µg/mL in test [5] (setting [14]). Moreover, the MIC came out at 4 µg/mL in test [5] (FDA-CDC AR-BANK #0441 (KPC-2)); 4 µg/mL in test [5] (setting [15]); 0.25 µg/mL in test [5] (setting [16]); 0.25 µg/mL in test [6]; 0.25 µg/mL in test [7] (setting [17]); 0.0625 µg/mL in test [7] (setting [18]). Further, the MIC was 8 µg/mL in test [7] (setting [19]), 0.125 µg/mL in test [7] (setting [20]), 2 µg/mL in test [7] (setting [21]) and 0.25 µg/mL in test [8].
`CC(C)(O/N=C(\C(=O)N[C@@H]1C(=O)N2C(C(=O)O)=C(C[N+]3(CCNC(=N)c4ccc(O)c(O)c4Cl)CCCC3)CS[C@H]12)c1csc(N)n1)C(=O)O` [Compound 9]: the MIC in test [4] (setting [9]) was above 32 µg/mL; in test [4] (setting [10]), 16 µg/mL; in test [4] (setting [11]), above 32 µg/mL; in test [4] (setting [12]) it was above 32 µg/mL; in test [4] (setting [13]) it was above 32 µg/mL; in test [5] (setting [14]), above 32 µg/mL. Moreover, the minimal inhibitory concentration (MIC) in test [5] (FDA-CDC AR-BANK #0441 (KPC-2)), in test [5] (setting [15]), in test [5] (setting [16]), in test [6], in test [7] (setting [17]) and in test [7] (setting [18]) was above 32 µg/mL in each case. Besides, the MIC in test [7] (setting [19]) is above 32 µg/mL; in test [7] (setting [20]) it was above 32 µg/mL; in test [7] (setting [21]), above 32 µg/mL; in test [8], 16 µg/mL.

The record behind these values is patent US20230121689A1, “CEPHALOSPORIN ANTIBACTERIAL COMPOUND AND PHARMACEUTICAL APPLICATION THEREOF” (priority 2020, published 2023).
